# Data reported in patent US10336732B2, “1-heterocyclyl isochromanyl compounds and analogs for treating CNS disorders” (Sunovion Pharmaceuticals Inc., priority 2015, dated 2019).
# Test system: mice
# Experiment: Neuropharmacological assay (SmartCube), behavioral signature of compound-treated mice
# Type: in vivo
# Conditions: i.p. 15 min before behavioral test, most efficacious dose(s) of 3 doses
# How it was run: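 Mice received compound i.p. in NMP/PEG/propylene glycol vehicle at 3 doses, 15 min before testing. Video-captured behavior was algorithmically compared with a reference-drug signature database.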
Structure (SMILES),AD: ADHD (probability that behavioral signature matches class),AG: analgesic (probability that behavioral signature matches class),AX: anxiolytic (probability that behavioral signature matches class),CE: cognitive enhancer (probability that behavioral signature matches class),DP: anti-depressant (probability that behavioral signature matches class),HA: hallucinogen (probability that behavioral signature matches class),MS: mood stabilizer (probability that behavioral signature matches class),PS: anti-psychotic (probability that behavioral signature matches class),SD: sedative hypnotic (probability that behavioral signature matches class),UN: uncharacterized CNS activity (probability that behavioral signature matches class),XG: anxiogenic (probability that behavioral signature matches class)
"Fc1cccc2c1[C@H]([C@@H]1CCCN1)OCC2 [Compound I-1, (S)-2-((R)-8-fluoroisochroman-1-yl)pyrrolidine]",+ (LOQ ≤ + <5%),++ (5% ≤ ++ <25%),++ (5% ≤ ++ <25%),++ (5% ≤ ++ <25%),++ (5% ≤ ++ <25%),+ (LOQ ≤ + <5%),++ (5% ≤ ++ <25%),+++ (25% ≤ +++ <50%),++ (5% ≤ ++ <25%),++ (5% ≤ ++ <25%),+ (LOQ ≤ + <5%)
"Fc1ccc2c(c1)[C@H]([C@@H]1CCCN1)OCC2 [Compound I-5, (2S)-2-((R)-7-fluoroisochroman-1-yl)pyrrolidine]",+ (LOQ ≤ + <5%),++ (5% ≤ ++ <25%),++ (5% ≤ ++ <25%),++ (5% ≤ ++ <25%),++ (5% ≤ ++ <25%),+ (LOQ ≤ + <5%),++ (5% ≤ ++ <25%),+++ (25% ≤ +++ <50%),+ (LOQ ≤ + <5%),+++ (25% ≤ +++ <50%),+ (LOQ ≤ + <5%)
"Fc1ccc2c(c1)CCO[C@H]2[C@@H]1CCCN1 [Compound I-9, (S)-2-((R)-6-fluoroisochroman-1-yl)pyrrolidine]",+ (LOQ ≤ + <5%),++ (5% ≤ ++ <25%),++ (5% ≤ ++ <25%),++ (5% ≤ ++ <25%),++ (5% ≤ ++ <25%),+ (LOQ ≤ + <5%),++ (5% ≤ ++ <25%),+++ (25% ≤ +++ <50%),++ (5% ≤ ++ <25%),+++ (25% ≤ +++ <50%),+ (LOQ ≤ + <5%)
"Clc1ccc2c(c1)[C@H]([C@@H]1CCCN1)OCC2 [Compound I-29, (S)-2-((R)-7-chloroisochroman-1-yl)pyrrolidine]",+ (LOQ ≤ + <5%),++ (5% ≤ ++ <25%),+++ (25% ≤ +++ <50%),+++ (25% ≤ +++ <50%),++ (5% ≤ ++ <25%),+ (LOQ ≤ + <5%),++ (5% ≤ ++ <25%),++ (5% ≤ ++ <25%),+ (LOQ ≤ + <5%),++ (5% ≤ ++ <25%),+ (LOQ ≤ + <5%)
"Fc1cccc2c1[C@H]([C@@H]1CCN1)OCC2 [Compound I-83, (S)-2-((R)-8-fluoroisochroman-1-yl)azetidine]",++ (5% ≤ ++ <25%),++ (5% ≤ ++ <25%),++ (5% ≤ ++ <25%),+++ (25% ≤ +++ <50%),++ (5% ≤ ++ <25%),+ (LOQ ≤ + <5%),++ (5% ≤ ++ <25%),+++ (25% ≤ +++ <50%),+ (LOQ ≤ + <5%),+ (LOQ ≤ + <5%),+ (LOQ ≤ + <5%)
"Fc1ccc2c(c1)CCO[C@H]2[C@@H]1CCN1 [Compound I-90, (S)-2-((R)-6-fluoroisochroman-1-yl)azetidine]",+ (LOQ ≤ + <5%),++ (5% ≤ ++ <25%),+++ (25% ≤ +++ <50%),++ (5% ≤ ++ <25%),+++ (25% ≤ +++ <50%),+ (LOQ ≤ + <5%),+ (LOQ ≤ + <5%),++ (5% ≤ ++ <25%),++ (5% ≤ ++ <25%),++ (5% ≤ ++ <25%),+ (LOQ ≤ + <5%)
"Fc1cccc2c1CCO[C@@H]2[C@@H]1CCN1 [Compound I-94, (S)-2-((S)-5-fluoroisochroman-1-yl)azetidine]",+ (LOQ ≤ + <5%),++ (5% ≤ ++ <25%),++ (5% ≤ ++ <25%),++ (5% ≤ ++ <25%),+++ (25% ≤ +++ <50%),+ (LOQ ≤ + <5%),+ (LOQ ≤ + <5%),+++ (25% ≤ +++ <50%),+ (LOQ ≤ + <5%),++ (5% ≤ ++ <25%),+ (LOQ ≤ + <5%)
"Fc1cccc2c1CCO[C@@H]2[C@H]1CCN1 [Compound I-96, (R)-2-((S)-5-fluoroisochroman-1-yl)azetidine]",+ (LOQ ≤ + <5%),+++ (25% ≤ +++ <50%),++ (5% ≤ ++ <25%),++ (5% ≤ ++ <25%),+++ (25% ≤ +++ <50%),+ (LOQ ≤ + <5%),++ (5% ≤ ++ <25%),+++ (25% ≤ +++ <50%),+ (LOQ ≤ + <5%),+ (LOQ ≤ + <5%),+ (LOQ ≤ + <5%)
